Laboratory results as given in ChEMBL document CHEMBL1155694, “Sesquiterpene alkaloids from Tripterygium hypoglaucum and Tripterygium wilfordii: a new class of potent anti-HIV agents” (J Nat Prod, 2000).
≈ marks a conversion by molar mass, not a printed value. Calls of active or inactive are those of the source. The calls are words filed in the database; no cut-off is given here.

Experiments:
[1] = test system: H9; assay: Cytotoxicity against human H9 cells; type: cell-based
[2] = test system: Human immunodeficiency virus 1; assay: Antiviral activity against HIV1 in human H9 cells assessed as inhibition of viral replication; type: functional, organism-based; details: for EC50: Human immunodeficiency virus 1, H9
[3] = Therapeutic index, ratio of IC50 for human H9 cells to EC50 for HIV1; type: cell-based; details: read-out: Ratio IC50/EC50

EC50 [2] | SMILES | IC50 [1] | selectivity ratio [3] | Activity [2]
< 0.1 µg/mL | COC(=O)C[C@@H]1C(=O)CC[C@H](C)C(=O)O[C@@H]2[C@@H]3[C@@H](OC(C)=O)[C@@]45O[C@@]3(C)COC(=O)c3cnccc3[C@@H](C)[C@@](C)(O)C(=O)O[C@@H]([C@H](OC(C)=O)[C@H](OC(C)=O)[C@@]4(COC1=O)[C@@H]2OC(C)=O)[C@]5(C)O | > 100 µg/mL | > 1000 | 
0.9 µg/mL (≈ 1.04 µM) | CC(=O)OC[C@]12[C@H](OC(C)=O)[C@H](OC(C)=O)[C@@H]3[C@@H](OC(=O)c4ccccc4)[C@@]14O[C@@]3(C)COC(=O)c1cccnc1C(C)C(C)C(=O)O[C@@H]([C@H](OC(C)=O)[C@@H]2OC(C)=O)[C@]4(C)O (some centres undefined) | 56.8 µg/mL (≈ 65.4 µM) | 63.4 | 
0.203 µg/mL (≈ 0.252 µM) | CC(=O)OC[C@]12[C@H](OC(C)=O)[C@H](OC(C)=O)[C@@H]3[C@@H](OC(C)=O)[C@@]14O[C@@]3(C)COC(=O)c1cccnc1C(C)C(C)C(=O)O[C@@H]([C@H](OC(C)=O)[C@@H]2OC(C)=O)[C@]4(C)O (some centres undefined) [EUONYMINE] | 22.8 µg/mL (≈ 28.3 µM) | 113 | 
0.503 µg/mL (≈ 0.66 µM) | CC(=O)OC[C@]12[C@H](OC(C)=O)C(=O)[C@@H]3[C@@H](OC(C)=O)[C@@]14O[C@@]3(C)COC(=O)c1cccnc1C(C)C(C)C(=O)O[C@@H]([C@H](OC(C)=O)[C@@H]2OC(C)=O)[C@]4(C)O (some centres undefined) [EVONINE] | 21.2 µg/mL (≈ 27.8 µM) | 42.1 | 
0.48 µg/mL (≈ 0.553 µM) | CC(=O)OC[C@]12[C@H](OC(C)=O)[C@H](OC(C)=O)[C@@H]3[C@@H](OC(C)=O)[C@@]14O[C@@]3(C)COC(=O)c1cccnc1C(C)C(C)C(=O)O[C@@H]([C@H](OC(=O)c1ccccc1)[C@@H]2OC(C)=O)[C@@]4(C)O (some centres undefined) [FORRESTINE] | > 100 µg/mL | > 208 | 
0.13 µg/mL (≈ 0.149 µM) | CC(=O)O[C@@H]1[C@@H]2[C@@H](OC(C)=O)[C@@]34O[C@@]2(C)COC(=O)c2cnccc2C(C)C(C)(O)C(=O)O[C@@H]([C@H](OC(C)=O)[C@H](OC(C)=O)[C@@]3(COC(=O)c2ccco2)[C@@H]1OC(C)=O)[C@]4(C)O (some centres undefined) [HYPOGLAUNINE A] | > 100 µg/mL | > 769 | 
0.1 µg/mL (≈ 0.114 µM) | CC(=O)OC[C@]12[C@H](OC(C)=O)[C@H](OC(C)=O)[C@@H]3[C@@H](OC(C)=O)[C@@]14O[C@@]3(C)COC(=O)c1cnccc1C(C)C(C)(O)C(=O)O[C@@H]([C@H](OC(=O)c1ccco1)[C@@H]2OC(C)=O)[C@]4(C)O (some centres undefined) [HYPOGLAUNINE B] | > 100 µg/mL | > 1000 | 
 | CC(=O)O[C@@H]1[C@@H]2[C@@H](OC(C)=O)[C@@]34O[C@@]2(C)COC(=O)c2cnccc2C(C)C(C)C(=O)O[C@@H]([C@H](OC(C)=O)[C@H](OC(C)=O)[C@@]3(COC(=O)c2ccco2)[C@@H]1OC(C)=O)[C@]4(C)O (some centres undefined) [HYPOGLAUNINE D] | 22.2 µg/mL (≈ 25.9 µM) |  | inactive
1 µg/mL (≈ 1.17 µM) | CC(=O)OC[C@]12[C@H](OC(C)=O)[C@H](OC(C)=O)[C@@H]3[C@@H](OC(=O)c4ccco4)[C@@]14O[C@@]3(C)COC(=O)c1cccnc1C(C)C(C)C(=O)O[C@@H]([C@H](OC(C)=O)[C@@H]2OC(C)=O)[C@]4(C)O (some centres undefined) [HYPONINE A] | 27.7 µg/mL (≈ 32.3 µM) | 27.7 | 
0.1 µg/mL (≈ 0.123 µM) | CC(=O)O[C@@H]1[C@H](OC(C)=O)[C@@]2(COC(=O)c3ccco3)[C@H](OC(C)=O)C(=O)[C@@H]3[C@@H](OC(C)=O)[C@@]24O[C@@]3(C)COC(=O)c2cccnc2C(C)C(C)C(=O)O[C@@H]1[C@]4(C)O (some centres undefined) [HYPONINE B] | > 100 µg/mL | > 1000 | 
 | CC(=O)OC[C@]12[C@H](OC(C)=O)[C@H](OC(C)=O)[C@@H]3[C@@H](OC(=O)c4ccccc4)[C@@]14O[C@@]3(C)COC(=O)c1cccnc1C(C)C(C)C(=O)O[C@@H]([C@H](OC(=O)c1cccnc1)[C@@H]2OC(C)=O)[C@]4(C)O (some centres undefined) [HYPONINE D] | 20.2 µg/mL (≈ 21.7 µM) |  | inactive
0.17 µg/mL (≈ 0.185 µM) | CC(=O)OC[C@]12[C@H](OC(C)=O)[C@H](OC(=O)c3cccnc3)[C@@H]3[C@@H](OC(=O)c4ccco4)[C@@]14O[C@@]3(C)COC(=O)c1cccnc1C(C)C(C)C(=O)O[C@@H]([C@H](OC(C)=O)[C@@H]2OC(C)=O)[C@]4(C)O (some centres undefined) [HYPONINE E] | 1.95 µg/mL (≈ 2.12 µM) | 11.3 | 
35.2 µg/mL (≈ 41 µM) | CC(=O)OC[C@]12[C@H](OC(C)=O)[C@H](OC(C)=O)[C@@H]3[C@@H](OC(C)=O)[C@@]14O[C@@]3(C)COC(=O)c1cccnc1C(C)C(C)C(=O)O[C@@H]([C@H](OC(=O)c1ccco1)[C@@H]2OC(C)=O)[C@]4(C)O (some centres undefined) [HYPONINE F] | > 100 µg/mL | > 2.84 | 
0.884 µg/mL (≈ 1.16 µM) | CC(=O)OC[C@]12[C@H](OC(C)=O)[C@H](OC(C)=O)[C@@H]3[C@@H](O)[C@@]14O[C@@]3(C)COC(=O)c1cccnc1C(C)C(C)C(=O)O[C@@H]([C@H](OC(C)=O)[C@@H]2OC(C)=O)[C@]4(C)O (some centres undefined) [NEOEUONYMINE] | > 100 µg/mL | > 113 | 
2.54 µg/mL (≈ 2.69 µM) | COC(=O)C[C@@H]1C(=O)CCC(C)C(=O)O[C@@H]2[C@@H]3[C@@H](OC(C)=O)[C@@]45O[C@@]3(C)COC(=O)c3cccnc3C(C)C(C)C(=O)O[C@@H]([C@H](OC(C)=O)[C@H](OC(C)=O)[C@@]4(COC1=O)[C@@H]2OC(C)=O)[C@]5(C)O (some centres undefined) [TRIPTONINE A] | > 100 µg/mL | > 39.4 | 
 | CC(=O)OC[C@]12[C@H](OC(C)=O)[C@H](OC(C)=O)[C@@H]3[C@@H](OC(C)=O)[C@@]14O[C@@]3(C)COC(=O)c1cccnc1CCC(C)C(=O)O[C@@H]([C@H](OC(=O)c1ccco1)[C@@H]2OC(C)=O)[C@]4(C)O (some centres undefined) [WILFORGINE] | > 100 µg/mL |  | inactive
 | CC(=O)OC[C@]12[C@H](OC(C)=O)[C@H](OC(C)=O)[C@@H]3[C@@H](OC(C)=O)[C@@]14O[C@@]3(C)COC(=O)c1cccnc1CCC(C)C(=O)O[C@@H]([C@H](OC(=O)c1ccccc1)[C@@H]2OC(C)=O)[C@]4(C)O (some centres undefined) [WILFORINE] | > 100 µg/mL |  | inactive
0.012 µg/mL (≈ 0.0449 µM) | Cc1cn([C@H]2C[C@H](N=[N+]=[N-])[C@@H](CO)O2)c(=O)[nH]c1=O [ZIDOVUDINE] |  |  | 

SMILES | EC50 [2] | IC50 [1] | selectivity ratio [3] | Activity [2]
CC(=O)OC[C@]12[C@H](OC(C)=O)[C@H](OC(C)=O)[C@@H]3[C@@H](OC(C)=O)[C@@]14O[C@@]3(C)COC(=O)c1cccnc1CCC(C)(O)C(=O)O[C@@H]([C@H](OC(=O)c1ccccc1)[C@@H]2OC(C)=O)[C@]4(C)O (some centres undefined) [WILFORDINE] | < 0.1 µg/mL | 20 µg/mL (≈ 22.6 µM) | > 220 | 
CC(=O)OC[C@]12[C@H](OC(C)=O)[C@H](OC(C)=O)[C@@H]3[C@@H](OC(C)=O)[C@@]14O[C@@]3(C)COC(=O)c1cccnc1CCC(C)(O)C(=O)O[C@@H]([C@H](OC(=O)c1ccco1)[C@@H]2OC(C)=O)[C@]4(C)O (some centres undefined) [WILFORTRINE] | < 0.1 µg/mL | > 100 µg/mL | > 1000 | 
